Results as given in US11117892B2, “Pyrrolo-pyridine derivative compound, method for preparing same, and pharmaceutical composition containing same as active ingredient for prevention or treatment of protein kinase-related diseases” (DAEGU-GYEONGBUK MEDICAL INNOVATION FOUNDATION, priority 2017, dated 2021).

Assays:
Experiment in all cases: scanMAX Kinase assay panel
Type in all cases: binding
PRKCD = PRKCD (Homo sapiens (Human), UniProt Q05655); settings: read-out: % control
Procedure, shortened: (§1)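 Panel: scanMAX. Metric: % control. The 100% anchor is DMSO and the 0% anchor is the positive control.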

PDGFRB = PDGFRB (Homo sapiens (Human), UniProt P09619); settings: read-out: % control
Procedure, shortened: as §1

p38-beta = p38-beta (Homo sapiens (Human), UniProt Q15759); settings: read-out: % control
Chain of p38-beta (Q15759 whole entry): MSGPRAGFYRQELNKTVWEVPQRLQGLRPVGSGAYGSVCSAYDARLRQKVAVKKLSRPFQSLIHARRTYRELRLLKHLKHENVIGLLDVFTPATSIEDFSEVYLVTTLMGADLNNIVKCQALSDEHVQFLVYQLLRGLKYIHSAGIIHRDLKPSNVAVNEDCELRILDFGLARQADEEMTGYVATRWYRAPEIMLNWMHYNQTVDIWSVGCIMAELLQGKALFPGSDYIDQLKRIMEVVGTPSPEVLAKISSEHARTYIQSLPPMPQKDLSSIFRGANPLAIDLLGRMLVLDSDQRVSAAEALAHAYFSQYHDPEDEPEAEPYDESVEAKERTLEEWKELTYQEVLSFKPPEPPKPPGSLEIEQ
Procedure, shortened: as §1

EPHB1 = EPHB1 (Homo sapiens (Human), UniProt P54762); settings: read-out: % control
Chain of EPHB1 (P54762 18-984): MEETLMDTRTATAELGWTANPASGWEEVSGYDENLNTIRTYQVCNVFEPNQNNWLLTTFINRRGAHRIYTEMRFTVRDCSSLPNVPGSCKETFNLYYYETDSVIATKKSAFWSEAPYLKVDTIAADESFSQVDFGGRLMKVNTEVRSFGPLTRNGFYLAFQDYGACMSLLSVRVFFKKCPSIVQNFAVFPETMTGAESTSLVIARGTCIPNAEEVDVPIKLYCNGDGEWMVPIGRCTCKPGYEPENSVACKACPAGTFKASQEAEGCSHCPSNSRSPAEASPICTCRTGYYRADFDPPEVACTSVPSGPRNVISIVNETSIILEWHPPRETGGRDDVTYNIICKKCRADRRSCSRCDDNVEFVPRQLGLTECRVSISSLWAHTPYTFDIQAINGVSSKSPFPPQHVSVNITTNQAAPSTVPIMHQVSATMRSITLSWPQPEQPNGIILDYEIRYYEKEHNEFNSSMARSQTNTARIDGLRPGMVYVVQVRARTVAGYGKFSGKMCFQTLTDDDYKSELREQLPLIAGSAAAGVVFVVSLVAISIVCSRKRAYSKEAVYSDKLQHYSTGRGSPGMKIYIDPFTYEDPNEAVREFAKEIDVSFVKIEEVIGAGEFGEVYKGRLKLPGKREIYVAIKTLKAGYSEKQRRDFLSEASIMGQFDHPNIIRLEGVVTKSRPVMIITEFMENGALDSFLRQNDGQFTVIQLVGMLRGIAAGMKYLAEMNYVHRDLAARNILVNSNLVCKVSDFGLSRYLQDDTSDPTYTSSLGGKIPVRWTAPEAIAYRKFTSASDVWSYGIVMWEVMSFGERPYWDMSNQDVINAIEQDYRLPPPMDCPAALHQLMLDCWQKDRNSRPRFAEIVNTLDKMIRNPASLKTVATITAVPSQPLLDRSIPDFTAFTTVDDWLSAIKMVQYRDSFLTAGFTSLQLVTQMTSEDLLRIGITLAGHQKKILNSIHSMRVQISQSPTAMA
Procedure, shortened: as §1

RIPK5 = RIPK5 (Homo sapiens (Human), UniProt Q6XUX3); settings: read-out: % control
Procedure, shortened: as §1

PYK2 = PYK2 (Homo sapiens (Human), UniProt Q14289); settings: read-out: % control
Chain of PYK2 (Q14289 whole entry): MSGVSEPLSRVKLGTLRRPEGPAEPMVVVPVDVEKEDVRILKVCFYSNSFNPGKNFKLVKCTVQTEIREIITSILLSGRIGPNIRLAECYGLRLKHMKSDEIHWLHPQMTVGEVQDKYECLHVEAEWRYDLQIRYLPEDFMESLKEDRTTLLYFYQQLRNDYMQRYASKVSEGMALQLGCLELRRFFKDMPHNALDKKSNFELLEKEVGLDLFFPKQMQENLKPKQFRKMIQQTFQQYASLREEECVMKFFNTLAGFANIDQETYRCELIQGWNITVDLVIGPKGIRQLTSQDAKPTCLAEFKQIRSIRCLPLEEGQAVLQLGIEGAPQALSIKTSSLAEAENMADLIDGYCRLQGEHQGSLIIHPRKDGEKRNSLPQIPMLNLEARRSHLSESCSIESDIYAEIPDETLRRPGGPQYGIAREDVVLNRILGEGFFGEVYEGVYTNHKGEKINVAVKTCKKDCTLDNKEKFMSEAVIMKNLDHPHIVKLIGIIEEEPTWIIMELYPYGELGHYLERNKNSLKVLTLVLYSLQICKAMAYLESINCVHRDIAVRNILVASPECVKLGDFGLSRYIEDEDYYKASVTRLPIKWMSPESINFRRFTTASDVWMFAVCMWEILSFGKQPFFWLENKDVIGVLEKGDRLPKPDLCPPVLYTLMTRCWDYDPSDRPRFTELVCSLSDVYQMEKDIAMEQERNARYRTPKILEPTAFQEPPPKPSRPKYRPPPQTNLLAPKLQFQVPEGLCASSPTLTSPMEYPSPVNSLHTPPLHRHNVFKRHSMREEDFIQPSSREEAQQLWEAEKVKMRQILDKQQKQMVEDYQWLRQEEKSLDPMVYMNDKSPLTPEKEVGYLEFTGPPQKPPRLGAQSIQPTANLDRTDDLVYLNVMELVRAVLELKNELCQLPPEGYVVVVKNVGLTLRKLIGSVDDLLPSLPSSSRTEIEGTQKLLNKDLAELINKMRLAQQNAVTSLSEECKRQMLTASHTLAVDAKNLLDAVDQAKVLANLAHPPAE
Procedure, shortened: as §1

YES = YES (Homo sapiens (Human), UniProt P07947); settings: read-out: % control
Procedure, shortened: as §1

FLT3(ITD, F691L) = settings: 1 uM
Procedure, shortened: as §1

MST1R = MST1R (Homo sapiens (Human), UniProt Q04912); settings: read-out: % control
Procedure, shortened: as §1

SLK = SLK (Homo sapiens (Human), UniProt Q9H2G2); settings: read-out: % control
Procedure, shortened: as §1

MST1 = MST1 (Homo sapiens (Human), UniProt Q13043); settings: read-out: % control
Procedure, shortened: as §1

TRKB = TRKB (Homo sapiens (Human), UniProt Q16620); settings: read-out: % control
Procedure, shortened: as §1

KIT(V559D, T670I) = KIT(V559D, T670I) (Homo sapiens (Human), UniProt P10721, T670I/V559D); settings: read-out: % control
Procedure, shortened: as §1

[1] = target: TYK2(JH1domain-catalytic) (Homo sapiens (Human), UniProt P29597); settings: read-out: % control
Procedure, shortened: as §1

IKK-alpha = IKK-alpha (Homo sapiens (Human), UniProt O15111); settings: read-out: % control
Chain of IKK-alpha (O15111 whole entry): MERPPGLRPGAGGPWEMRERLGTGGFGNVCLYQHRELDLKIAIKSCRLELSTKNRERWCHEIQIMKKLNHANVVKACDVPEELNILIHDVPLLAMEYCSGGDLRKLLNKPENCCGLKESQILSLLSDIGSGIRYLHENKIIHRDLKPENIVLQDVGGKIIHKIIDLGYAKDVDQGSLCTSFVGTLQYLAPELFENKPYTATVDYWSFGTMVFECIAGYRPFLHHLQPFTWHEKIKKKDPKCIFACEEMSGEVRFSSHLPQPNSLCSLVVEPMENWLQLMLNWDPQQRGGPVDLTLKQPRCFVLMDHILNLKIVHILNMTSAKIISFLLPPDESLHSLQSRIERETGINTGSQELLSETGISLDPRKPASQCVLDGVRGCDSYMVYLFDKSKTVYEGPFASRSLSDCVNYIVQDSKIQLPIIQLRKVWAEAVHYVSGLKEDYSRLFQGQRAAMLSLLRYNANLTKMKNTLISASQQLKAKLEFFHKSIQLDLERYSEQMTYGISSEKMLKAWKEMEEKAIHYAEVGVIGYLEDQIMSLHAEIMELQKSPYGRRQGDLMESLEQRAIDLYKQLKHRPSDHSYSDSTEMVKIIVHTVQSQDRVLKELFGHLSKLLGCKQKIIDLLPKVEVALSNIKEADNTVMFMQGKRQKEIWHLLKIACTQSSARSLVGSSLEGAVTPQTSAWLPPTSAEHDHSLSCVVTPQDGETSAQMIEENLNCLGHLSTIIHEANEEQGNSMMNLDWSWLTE
Procedure, shortened: as §1

PIK3CA(H1047L) = PIK3CA(H1047L) (Homo sapiens (Human), UniProt P42336, H1047L); settings: read-out: % control
Procedure, shortened: as §1

p38-alpha = p38-alpha (Homo sapiens (Human), UniProt Q16539); settings: read-out: % control
Procedure, shortened: as §1

MAPKAPK5 = MAPKAPK5 (Homo sapiens (Human), UniProt Q8IW41); settings: read-out: % control
Procedure, shortened: as §1

MRCKA = MRCKA (Homo sapiens (Human), UniProt Q5VT25); settings: read-out: % control
Procedure, shortened: as §1

PHKG1 = PHKG1 (Homo sapiens (Human), UniProt Q16816); settings: read-out: % control
Chain of PHKG1 (Q16816 whole entry): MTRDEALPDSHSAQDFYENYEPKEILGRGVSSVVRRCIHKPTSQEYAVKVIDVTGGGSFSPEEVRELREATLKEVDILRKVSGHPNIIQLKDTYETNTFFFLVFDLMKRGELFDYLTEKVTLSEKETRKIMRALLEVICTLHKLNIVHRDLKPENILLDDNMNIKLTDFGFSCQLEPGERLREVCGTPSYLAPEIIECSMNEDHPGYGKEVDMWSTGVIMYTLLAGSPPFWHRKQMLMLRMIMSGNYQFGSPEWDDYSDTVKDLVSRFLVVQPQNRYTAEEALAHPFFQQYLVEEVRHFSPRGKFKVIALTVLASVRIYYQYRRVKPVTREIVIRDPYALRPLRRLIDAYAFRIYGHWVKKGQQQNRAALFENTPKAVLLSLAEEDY
Procedure, shortened: as §1

CSF1R-autoinhibited = CSF1R-autoinhibited (Homo sapiens (Human), UniProt P07333); settings: read-out: % control
Procedure, shortened: as §1

MAP4K3 = MAP4K3 (Homo sapiens (Human), UniProt Q8IVH8); settings: read-out: % control
Procedure, shortened: as §1

ROCK2 = ROCK2 (Homo sapiens (Human), UniProt O75116); settings: read-out: % control
Procedure, shortened: as §1

FGFR2 = FGFR2 (Homo sapiens (Human), UniProt P21802); settings: read-out: % control
Procedure, shortened: as §1

ADCK4 = ADCK4 (Homo sapiens (Human), UniProt Q96D53); settings: read-out: % control
Procedure, shortened: as §1

[2] = target: RPS6KA5(Kin.Dom.2-C-terminal) (Homo sapiens (Human), UniProt O75582); settings: read-out: % control
Procedure, shortened: as §1

SRC = SRC (Homo sapiens (Human), UniProt P12931); settings: read-out: % control
Procedure, shortened: as §1

CAMK1B = CAMK1B (Homo sapiens (Human), UniProt Q6P2M8); settings: read-out: % control
Procedure, shortened: as §1

TTK = TTK (Homo sapiens (Human), UniProt P33981); settings: read-out: % control
Procedure, shortened: as §1

CDC2L2 = CDC2L2 (Homo sapiens (Human), UniProt Q9UQ88); settings: read-out: % control
Procedure, shortened: as §1

GCN2(Kin.Dom.2, S808G) = GCN2(Kin.Dom.2, S808G) (Homo sapiens (Human), UniProt Q9P2K8, S808G); settings: read-out: % control
Procedure, shortened: as §1

SRPK2 = SRPK2 (Homo sapiens (Human), UniProt P78362); settings: read-out: % control
Procedure, shortened: as §1

HCK = HCK (Homo sapiens (Human), UniProt P08631); settings: read-out: % control
Chain of HCK (P08631 whole entry): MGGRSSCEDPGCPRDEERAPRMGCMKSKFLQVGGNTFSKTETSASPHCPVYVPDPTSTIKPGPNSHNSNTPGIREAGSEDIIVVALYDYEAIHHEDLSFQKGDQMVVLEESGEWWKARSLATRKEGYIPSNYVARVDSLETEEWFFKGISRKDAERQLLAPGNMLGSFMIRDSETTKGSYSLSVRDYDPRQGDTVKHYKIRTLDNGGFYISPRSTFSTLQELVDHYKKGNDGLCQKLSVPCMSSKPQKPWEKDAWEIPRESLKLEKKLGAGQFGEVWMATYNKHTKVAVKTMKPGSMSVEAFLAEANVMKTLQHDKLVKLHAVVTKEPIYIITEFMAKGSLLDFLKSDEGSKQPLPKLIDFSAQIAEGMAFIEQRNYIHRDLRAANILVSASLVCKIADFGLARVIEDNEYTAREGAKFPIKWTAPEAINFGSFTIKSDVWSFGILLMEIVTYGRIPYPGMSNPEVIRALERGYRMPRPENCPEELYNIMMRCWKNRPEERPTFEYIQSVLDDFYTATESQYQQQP
Procedure, shortened: as §1

LCK = LCK (Homo sapiens (Human), UniProt P06239); settings: read-out: % control
Procedure, shortened: as §1

SIK2 = SIK2 (Homo sapiens (Human), UniProt Q9H0K1); settings: read-out: % control
Chain of SIK2 (Q9H0K1 whole entry): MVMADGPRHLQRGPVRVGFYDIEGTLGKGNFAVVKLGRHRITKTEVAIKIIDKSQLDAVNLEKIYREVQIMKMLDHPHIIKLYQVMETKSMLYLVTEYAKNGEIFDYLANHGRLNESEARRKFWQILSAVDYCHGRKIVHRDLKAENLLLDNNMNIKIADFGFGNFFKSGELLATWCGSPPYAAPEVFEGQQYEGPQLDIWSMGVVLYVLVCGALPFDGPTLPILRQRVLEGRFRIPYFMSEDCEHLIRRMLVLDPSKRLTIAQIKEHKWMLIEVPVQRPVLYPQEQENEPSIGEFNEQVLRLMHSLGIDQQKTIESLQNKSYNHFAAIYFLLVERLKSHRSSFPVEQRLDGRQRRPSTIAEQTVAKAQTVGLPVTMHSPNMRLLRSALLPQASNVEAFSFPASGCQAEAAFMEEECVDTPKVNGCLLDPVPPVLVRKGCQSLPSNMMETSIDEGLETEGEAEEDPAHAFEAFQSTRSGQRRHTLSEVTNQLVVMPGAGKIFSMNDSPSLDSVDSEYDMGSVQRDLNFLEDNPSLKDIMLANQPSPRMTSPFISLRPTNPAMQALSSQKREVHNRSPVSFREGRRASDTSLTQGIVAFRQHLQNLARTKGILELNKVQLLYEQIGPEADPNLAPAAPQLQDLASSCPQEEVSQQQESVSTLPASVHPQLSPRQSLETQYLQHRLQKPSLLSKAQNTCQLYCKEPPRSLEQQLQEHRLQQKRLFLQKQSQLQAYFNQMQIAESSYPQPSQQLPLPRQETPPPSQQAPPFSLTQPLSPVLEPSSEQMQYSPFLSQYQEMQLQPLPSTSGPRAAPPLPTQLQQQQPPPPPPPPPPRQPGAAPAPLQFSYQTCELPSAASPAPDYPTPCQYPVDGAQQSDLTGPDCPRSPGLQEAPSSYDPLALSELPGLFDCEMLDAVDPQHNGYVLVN
Procedure, shortened: as §1

ADCK3 = ADCK3 (Homo sapiens (Human), UniProt Q8NI60); settings: read-out: % control
Procedure, shortened: as §1

NEK11 = NEK11 (Homo sapiens (Human), UniProt Q8NG66); settings: read-out: % control
Procedure, shortened: as §1

TSSK3 = TSSK3 (Homo sapiens (Human), UniProt Q96PN8); settings: read-out: % control
Procedure, shortened: as §1

IRAK1 = IRAK1 (Homo sapiens (Human), UniProt P51617); settings: read-out: % control
Procedure, shortened: as §1

Structure (SMILES) | remaining binding at 1 µM (PRKCD) | remaining binding at 1 µM (PDGFRB) | remaining binding at 1 µM (p38-beta) | remaining binding at 1 µM (EPHB1) | remaining binding at 1 µM (RIPK5) | remaining binding at 1 µM (PYK2) | remaining binding at 1 µM (YES) | % control (FLT3(ITD, F691L)) | remaining binding at 1 µM (MST1R) | remaining binding at 1 µM (SLK) | remaining binding at 1 µM (MST1) | remaining binding at 1 µM (TRKB) | remaining binding at 1 µM (KIT(V559D, T670I)) | remaining binding at 1 µM [1] | remaining binding at 1 µM (IKK-alpha) | remaining binding at 1 µM (PIK3CA(H1047L)) | remaining binding at 1 µM (p38-alpha) | remaining binding at 1 µM (MAPKAPK5) | remaining binding at 1 µM (MRCKA) | remaining binding at 1 µM (PHKG1) | further results
CCNc1cc(Nc2ccc(C(=O)N3CCC(N4CCOCC4)CC3)cc2OC)nc2[nH]cc(C(F)(F)F)c12 [Example 57, (4-((4-(ethylamino)-3-(trifluoromethyl)-1H-pyrrolo[2,3-b]pyridin-6-yl)amino)-3-methoxyphenyl) (4-morpholinopiperidin-1-yl)methanone] | 87% | 92% | 76% | 94% | 79% | 76% | 83% | 84% | 70% | 80% | 76% | 100% | 78% | 100% | 100% | 100% | 83% | 100% | 95% | 26% | remaining binding at 1 µM (CSF1R-autoinhibited): 83%; remaining binding at 1 µM (MAP4K3): 91%; remaining binding at 1 µM (ROCK2): 100%; remaining binding at 1 µM (FGFR2): 72%; remaining binding at 1 µM (ADCK4): 75%; remaining binding at 1 µM [2]: 83%; remaining binding at 1 µM (SRC): 100%; remaining binding at 1 µM (CAMK1B): 81%; remaining binding at 1 µM (TTK): 67%; remaining binding at 1 µM (CDC2L2): 88%; remaining binding at 1 µM (GCN2(Kin.Dom.2, S808G)): 91%; remaining binding at 1 µM (SRPK2): 100%; remaining binding at 1 µM (HCK): 88%; remaining binding at 1 µM (LCK): 90%; remaining binding at 1 µM (SIK2): 95%; remaining binding at 1 µM (ADCK3): 89%; remaining binding at 1 µM (NEK11): 100%; remaining binding at 1 µM (TSSK3): 91%; remaining binding at 1 µM (IRAK1): 100%
CCNc1cc(Nc2ccc(C(=O)N3CCC(N4CCOCC4)CC3)cc2OC)nc2[nH]cc(C#N)c12 [Example 18, 4-(ethylamino)-6-((2-methoxy-4-(4-morpholinopiperidine-1-carbonyl)phenyl)amino)-1H-pyrrolo[2,3-b]pyridine-3-carbonitrile] | 75% | 76% | 77% | 95% | 18% | 60% | 90% | 46% | 81% | 95% | 99% | 100% | 48% | 59% | 44% | 85% | 100% | 43% | 100% | 16% | remaining binding at 1 µM (CSF1R-autoinhibited): 51%; remaining binding at 1 µM (MAP4K3): 93%; remaining binding at 1 µM (ROCK2): 7.8%; remaining binding at 1 µM (FGFR2): 85%; remaining binding at 1 µM (ADCK4): 100%; remaining binding at 1 µM [2]: 10%; remaining binding at 1 µM (SRC): 100%; remaining binding at 1 µM (CAMK1B): 34%; remaining binding at 1 µM (TTK): 8.9%; remaining binding at 1 µM (CDC2L2): 86%; remaining binding at 1 µM (GCN2(Kin.Dom.2, S808G)): 97%; remaining binding at 1 µM (SRPK2): 100%; remaining binding at 1 µM (HCK): 85%; remaining binding at 1 µM (LCK): 96%; remaining binding at 1 µM (SIK2): 87%; remaining binding at 1 µM (ADCK3): 86%; remaining binding at 1 µM (NEK11): 100%; remaining binding at 1 µM (TSSK3): 30%; remaining binding at 1 µM (IRAK1): 79%
